One test relates to V79 cells. As to the kind of experiment: Colony formation, survival fraction of V79 cells. Format: cell-based, Chinese hamsters. To be noted: SQAP not administered. The method, then: (§1) An anti-cancer agent and a pharmaceutical composition were administered to test cells and then the cells were cultured. Then, after colonies were formed, the number of colonies was counted. Here, samples in which the concentration of the anti-cancer agent to be administered was varied were prepared, and in each sample, the survival fraction of the cells compared with the case where cells were cultured without administration of the pharmaceutical composition was measured. Regarding the type of anti-cancer agent to be administered, a predetermined anti-cancer agent was selected depending on the type of administration target cells. Note that cells that were cultured without administration of the pharmaceutical composition and the anti-cancer agent were used as a control. Hereinafter, these steps will be described.
(§2) Here, CHO cells, V79 cells, and canine-derived cancer cells were prepared as the test cells. The CHO cells are ovarian cells derived from Chinese hamsters, and the V79 cells are fibroblasts derived from the lungs of Chinese hamsters. Melanoma developing cells (CML6M) and soft tissue sarcoma developing cells (STSA-1) were used as the cancer cells.
(§3) The cancer cells were prepared by being cultured using an αMEM culture medium supplemented with 10% serum and an antibiotic. The cancer cells were prepared such that, when the concentration of the cells in a cell suspension obtained by subjecting the cultured cells to PBS washing and trypsin treatment, the concentration was within a predetermined concentration range. Here, the predetermined concentration ranges were 300 cells/well, 100 to 150 cells/well, and 500 to 1000 cells/well for the CHO/V79 cells, the melanoma cells, and the soft tissue sarcoma cells, respectively.
(§4) Next, the cancer cells were cultured in culture environments to which the anti-cancer agent was added at various concentrations, and were then allowed to form colonies. The culture periods for colony formation were a week, 10 days, and 14 days for CHO and V79, melanoma, and soft tissue sarcoma, respectively. After colonies were formed, washing using a physiological saline solution, fixation using 100% ethanol, and staining using 0.1% crystal violet were performed, and then the number of colonies per well was counted under a microscope. Note that, here, the colony was defined as containing 50 or more cells. […]
A graph with the horizontal axis representing the concentration of the anti-cancer agent and the vertical axis representing the survival fraction was created by plotting the survival fraction measurement results relative to the SQAP administration amounts, and the effect of the addition of SQAP on the survival fraction was examined. Hereinafter, the results from each anti-cancer agent will be shown in a table and described. […]
V79 cells were used as the cells, and cisplatin was used as the anti-cancer agent. The cisplatin was administered at concentrations of 0 μg/mL, 0.1 μg/mL, 0.2 μg/mL, 0.3 μg/mL, 0.4 μg/mL, and 0.5 μg/mL.
V79 cells were used as the cells, and camptothecin was used as the anti-cancer agent. The amount of the camptothecin was set to 0 nM, 5 nM, 10 nM, 15 nM, and 20 nM.
V79 cells were used as the cells, and mitomycin C was used as the anti-cancer agent. The amount of MMC was set to 0 nM, 100 nM, 200 nM, 300 nM, 400 nM, and 500 nM. […]
V79 cells were used as the cells, and taxol was used as the anti-cancer agent. The amount of the taxol was set to 0 nM, 10 nM, 20 nM, and 30 nM.
V79 cells were used as the cells, and MMS was used as the anti-cancer agent. The amount of the MMS was set to 0 μM, 10 μM, 20 μM, 30 μM, and 40 μM.
(§5) In the above examples, the anti-cancer agent and the pharmaceutical composition were administered to the test cells and then the cells were cultured. […]

For test [1], the system named is soft tissue sarcoma developing cells (STSA-1). The experiment in a line: Colony formation, survival fraction of canine soft tissue sarcoma cells. It counts as cell-based. To be noted: soft tissue sarcoma cells; doxorubicin 10 nM, SQAP not administered. As for the experimental part:
as §1, §2, §3
(§6) Next, the cancer cells were cultured in culture environments to which the anti-cancer agent was added at various concentrations, and were then allowed to form colonies. The culture periods for colony formation were a week, 10 days, and 14 days for CHO and V79, melanoma, and soft tissue sarcoma, respectively. After colonies were formed, washing using a physiological saline solution, fixation using 100% ethanol, and staining using 0.1% crystal violet were performed, and then the number of colonies per well was counted under a microscope. Note that, here, the colony was defined as containing 50 or more cells. Moreover, mitomycin C, doxorubicin, bleomycin, camptothecin, etoposide, taxol, methyl methanesulfonate, and cisplatin were used as the anti-cancer agent.
(§7) A graph with the horizontal axis representing the concentration of the anti-cancer agent and the vertical axis representing the survival fraction was created by plotting the survival fraction measurement results relative to the SQAP administration amounts, and the effect of the addition of SQAP on the survival fraction was examined. Hereinafter, the results from each anti-cancer agent will be shown in a table and described.
Canine-derived melanoma cells and soft tissue sarcoma cells were used as the cells, and doxorubicin was used as the anti-cancer agent. The amount of the doxorubicin administered to the melanoma cell was set to 0 nM, 5 nM, 10 nM, 15 nM, 20 nM, and 25 nM. […] In Table 2, survival fractions in the case where SQAP was not administered are shown with a solid line, survival fractions in the case where SQAP was administered at a concentration of 10 μM are shown with a broken line, survival fractions in the case where SQAP was administered at a concentration of 20 μM are shown with a 1-dot chain line, and survival fractions in the case where SQAP was administered at a concentration of 30 μM are shown with a 2-dot chain line.
as §5

Test [2] concerns Melanoma developing cells (CML6M). As to the kind of experiment: Colony formation, survival fraction of canine melanoma cells. Format: cell-based. To be noted: melanoma cells; doxorubicin 15 nM, SQAP not administered. The method, then:
as §1, §2, §3, §6, §7
Canine-derived melanoma cells and soft tissue sarcoma cells were used as the cells, and doxorubicin was used as the anti-cancer agent. […] Also, the concentration of the doxorubicin administered to the soft tissue sarcoma cells was set to 0 nM, 5 nM, 10 nM, and 15 nM. […] In Table 2, survival fractions in the case where SQAP was not administered are shown with a solid line, survival fractions in the case where SQAP was administered at a concentration of 10 μM are shown with a broken line, survival fractions in the case where SQAP was administered at a concentration of 20 μM are shown with a 1-dot chain line, and survival fractions in the case where SQAP was administered at a concentration of 30 μM are shown with a 2-dot chain line.
as §5

The subject of the next test is CHO cells. As to the kind of experiment: Colony formation, survival fraction of CHO cells. Format: cell-based, Chinese hamsters. To be noted: mitomycin C 500 nM, SQAP not administered. As for the experimental part: as §1, §2, §3, §4
In the above examples, the anti-cancer agent and the pharmaceutical composition were administered to the test cells and then the cells were cultured. In this example, test cells were cultured after administering pharmaceutical composition (SQAP) alone without administering the anti-cancer agent to the test cells, and then the number of colonies was counted after colonies were formed. […]

In the next test the test system is angiogenesis. To be noted: in combination with radiation; cited from earlier work.
Test [3] relates to human colon adenocarcinoma. The conditions noted are these: in combination with radiation; mouse with transplanted human colon adenocarcinoma; cited from earlier work.
The subject of test [4] is human esophageal squamous cell carcinoma. The conditions noted are these: in combination with radiation; mouse with transplanted human esophageal squamous cell carcinoma; cited from earlier work.

Consider `COS(C)(=O)=O` [MMS, methyl methanesulfonate, reference compound], for which the survival fraction entry with V79 cells (MMS 40 μM) is “about 40%”.

Consider `CC[C@@]1(O)C(=O)OCc2c1cc1n(c2=O)Cc2cc3ccccc3nc2-1` [camptothecin, reference compound], for which, in the test with V79 cells (camptothecin 20 nM), the survival fraction result is given as “about 15%”.

Take `N.N.[Cl][Pt][Cl]` [cisplatin, reference compound]: in the test with V79 cells (cisplatin 0.3 μg/mL), the survival fraction result is “about 40%”.

As for `COc1cccc2c1C(=O)c1c(O)c3c(c(O)c1C2=O)C[C@@](O)(C(=O)CO)C[C@@H]3O[C@H]1C[C@H](N)[C@H](O)[C@H](C)O1` [doxorubicin, reference compound], the survival fraction result was “about 6%” in test [1] and “about 20%” in test [2].

Consider `COc1cc([C@@H]2c3cc4c(cc3[C@@H](O[C@@H]3O[C@@H]5CO[C@@H](C)O[C@H]5[C@H](O)[C@H]3O)[C@H]3COC(=O)[C@H]23)OCO4)cc(OC)c1O` [etoposide, reference compound], for which the survival fraction entry in the test with V79 cells (etoposide 30 nM) is recorded as “about 30%”.

`CO[C@@]12[C@H](COC(N)=O)C3=C(C(=O)C(C)=C(N)C3=O)N1C[C@@H]1N[C@@H]12` [mitomycin C, reference compound]: the survival fraction entry in the test with V79 cells (mitomycin C 500 nM) was “about 50%”; with CHO cells it was “about 40%”.

As to `CC(=O)O[C@H]1C(=O)[C@@]2(C)[C@H]([C@H](OC(=O)c3ccccc3)[C@]3(O)C[C@H](OC(=O)[C@H](O)[C@@H](NC(=O)c4ccccc4)c4ccccc4)C(C)=C1C3(C)C)[C@]1(OC(C)=O)CO[C@@H]1C[C@@H]2O` [taxol, reference compound], in the test with V79 cells (taxol 30 nM), the survival fraction entry is “about 5%”.

As to `CCCCCCCCCC(=O)OCCCO[C@H]1O[C@H](CS(=O)(=O)[O-])[C@@H](O)[C@H](O)[C@H]1O.[Na+]` [αSQAP C10:0], the “angiogenesis in an in-vitro test” value in the test on angiogenesis was “inhibited”.

Turning to `CCCCCCCCCCCCCC(=O)OCCCO[C@H]1O[C@H](CS(=O)(=O)[O-])[C@@H](O)[C@H](O)[C@H]1O.[Na+]` [αSQAP C14:0], the “angiogenesis in an in-vitro test” value in the test with angiogenesis is “inhibited”.

Take `CCCCCCCCCCCCCCCCCC(=O)OCCCO[C@H]1O[C@H](CS(=O)(=O)[O-])[C@@H](O)[C@H](O)[C@H]1O.[Na+]` [αSQAP C18:0]: in the test with angiogenesis, the “angiogenesis in an in-vitro test” value is “inhibited”. The “increase in a tumor volume” value in test [3] and in test [4] was “suppressed” throughout.

For the molecule `CCCCCCCCCCCCCCCCCCCCCC(=O)OCCCO[C@H]1O[C@H](CS(=O)(=O)[O-])[C@@H](O)[C@H](O)[C@H]1O.[Na+]` [αSQAP C22:0], the “angiogenesis in an in-vitro test” value in the test with angiogenesis is recorded as “inhibited”.

For `CCCCCCCCCCCCCCCCCC(=O)OCCCO[C@@H]1O[C@H](CS(=O)(=O)[O-])[C@@H](O)[C@H](O)[C@H]1O.[Na+]` [βSQAP C18:0], the “angiogenesis in an in-vitro test” value with angiogenesis is recorded as “inhibited”.

In the case of bleomycin [reference compound], the survival fraction entry in the test on V79 cells (bleomycin 15 nM) is listed as “about 40%”.

The values above are taken from US20240131044A1, “METHOD FOR TREATING CANCER” (M.T.3, Inc., priority 2022, published 2024).
